In patent publication US7531545B2, “2-amino-3,4-dihydro-pyrido[3,4-d]pyrimidine derivatives useful as inhibitors of β-secretase (BACE)” (Janssen Pharmaceutica, N.V., priority 2005, dated 2009):
Values joined by “and” are separate entries in the source; they are usually repeats but may differ in a detail not shown here. Equal values may be shown once.

Molecular target: human BACE-1 (Homo sapiens, UniProt P56817)
Assay: CEREP BACE Inhibition Assay
Type: biochemical
Conditions: recombinant enzyme; for IC50: read-out: IC50; for inhibition at 1 µM: read-out: % Inhibition @ 1.0 μM
Experimental: More specifically the assay, run at 50 μL in a 96 well plate, evaluated the effect of test compound on the activity of the human BACE-1 quantified by measuring the formation of Mca-S-E-V-N-L-NH2 from […], using a recombinant enzyme. The test compound, reference compound or water (control) were added to a buffer containing 0.09 M sodium acetate (pH 4.5) and 0.25 μg BACE-1. Compound interference with the fluorimetric detection method due to autofluorescence was then checked by measurements at the wavelengths defined to evaluate the enzyme activity. […] For control basal measurement, the substrate was omitted from the reaction mixture. […] The standard inhibitory reference compound was OM99-2, which was tested in each experiment at several concentrations to obtain an inhibition curve from which its IC50 value was calculated.

[1] = percent inhibition of the control activity

human BACE-1, sequence (P56817 46-501): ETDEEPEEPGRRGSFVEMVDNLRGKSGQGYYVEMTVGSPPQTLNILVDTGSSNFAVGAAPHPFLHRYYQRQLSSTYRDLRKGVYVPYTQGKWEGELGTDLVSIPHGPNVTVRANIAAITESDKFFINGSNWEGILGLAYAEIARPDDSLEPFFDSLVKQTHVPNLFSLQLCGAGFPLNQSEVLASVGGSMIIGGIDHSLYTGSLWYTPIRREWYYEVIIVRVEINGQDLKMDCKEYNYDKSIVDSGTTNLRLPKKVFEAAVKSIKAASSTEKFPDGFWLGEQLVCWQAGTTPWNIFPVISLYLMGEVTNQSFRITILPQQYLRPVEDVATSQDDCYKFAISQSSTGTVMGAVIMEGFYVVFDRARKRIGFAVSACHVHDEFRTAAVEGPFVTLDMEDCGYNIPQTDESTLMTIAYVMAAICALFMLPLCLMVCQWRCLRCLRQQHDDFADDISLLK

SMILES | inhibition at 0.3 µM [1] [%] | IC50 | inhibition at 1 µM [1] [%] | % Inhibition @ 1.0 μM [1] [%] | inhibition at 10 µM (10.0 μM, percent inhibition of the control activity) [%]
CC(C)[C@H](COCc1cc(C(C)(C)C)no1)N1Cc2cc(Oc3ccccc3)ncc2N=C1N [Compound 237] | – | 0.27 µM | 87 | – | –
CN(CCc1ccccc1)C(=O)CC[C@@H](C1CCCCC1)N1Cc2cc(Oc3ccccc3)ncc2N=C1N [Compound 122, 4-(2-Amino-6-phenoxy-4H-pyrido[3,4-d]pyrimidin-3-yl)-4-(S)-cyclohexyl-N-methyl-N-phenethyl-butyramide] | – | – | 97 | – | –
CN(C(=O)CCCN1Cc2cc(Oc3ccccc3)ncc2N=C1N)C1CCCCC1 [Compound 196, 4-(2-Amino-6-phenoxy-4H-pyrido[3,4-d]pyrimidin-3-yl)-N-cyclohexyl-N-methyl-butyramide] | – | – | 34 | – | –
COC(=O)[C@@H](COC(C)(C)C)NC(=O)CC[C@@H](C1CCCCC1)N1Cc2cc(Oc3ccccc3)ncc2N=C1N [Compound 63, 2-[4-(2-Amino-6-phenoxy-4H-pyrido[3,4-d]pyrimidin-3-yl)-4-(S)-cyclohexyl-butyryl-(R)-amino]-3-tert-butoxy-propionic acid methyl ester] | 94 | 0.19 µM | – | – | –
CC(C)[C@H](CCC(=O)N[C@@H](COC(C)(C)C)C(=O)O)N1Cc2cc(Oc3ccccc3)ncc2N=C1N [Compound 70] | 66 | 0.26 µM | – | – | –
C[C@H](CO)N(C)CCC[C@@H](C1CCCCC1)N1Cc2cc(Oc3ccccc3)ncc2N=C1N [Compound 184] | – | 2.3 µM | 45 | – | –
NC1=Nc2cnc(Oc3ccccc3)cc2CN1[C@@H](CCC(=O)N1CCCC[C@H]1C(=O)O)C1CCCCC1 [Compound 91] | 70 | 0.34 µM | – | – | –
CC(C)C(COCC1CC(CC(C)(C)C)=NO1)N1Cc2cc(Oc3ccccc3)ncc2N=C1N (centres unmarked) [Compound 238] | – | 0.54 µM | 72 | – | –
NC1=Nc2cnc(Oc3ccccc3)cc2CN1[C@@H](CCCNCC1CC1)C1CCCCC1 [Compound 213] | – | 0.24 µM | 88 | – | –
C[C@H](CO)N(C)C(=O)CC[C@@H](C1CCCCC1)N1Cc2cc(Oc3ccccc3)ncc2N=C1N [Compound 183] | – | 0.58 µM | 70 | – | –
CC(C)=CCOC[C@@H](C(C)C)N1Cc2cc(Oc3ccccc3)ncc2N=C1N [Compound 233, 3-[2-Methyl-1-(3-methyl-but-2-enyloxymethyl)-propyl]-6-phenoxy-3,4-dihydro-pyrido[3,4-d]pyrimidin-2-ylamine] | – | 0.88 µM | 52 | – | –
NC1=Nc2cnc(Oc3ccccc3)cc2CN1[C@@H](CCC(=O)N1CCC[C@@H]1CO)C1CCCCC1 [Compound 144] | – | 0.82 µM | 81 | – | –
CC(C)(C)CNC(=O)C[C@@H](C1CCCCC1)N1Cc2cc(Oc3ccccc3)ncc2N=C1N [Compound 200] | – | 0.78 µM and 0.76 µM | 50 | 53 | –
CC(C)(C)N(CCO)C(=O)CC[C@@H](C1CCCCC1)N1Cc2cc(Oc3ccccc3)ncc2N=C1N [Compound 115] | – | 0.23 µM | 80 | – | –
NC1=Nc2cnc(Oc3ccccc3)cc2CN1[C@@H](CCC(=O)NCCN1CCOCC1)C1CCCCC1 [Compound 116] | – | 0.63 µM | 54 | – | –
CC(C)(C)CCNCC[C@@H](C1CCCCC1)N1Cc2cc(Oc3ccccc3)ncc2N=C1N [Compound 216] | – | 0.087 µM and 0.12 µM | 96 | 95 | –
NC1=Nc2cnc(Oc3ccccc3)cc2CN1[C@@H](CCC(=O)N(Cc1nnn[nH]1)C1CCCCC1)C1CCCCC1 [Compound 77, 4-(2-Amino-6-phenoxy-4H-pyrido[3,4-d]pyrimidin-3-yl)-4-(S)—N-dicyclohexyl-N-(1H-tetrazol-5-ylmethyl)-butyramide] | 78 | 0.33 µM | – | – | –
CC(C)(C)c1cn(C[C@@H](C2CCCCC2)N2Cc3cc(Oc4ccccc4)ncc3N=C2NO)nn1 [Compound 246, N-{3-[2-(4-tert-Butyl-[1,2,3]triazol-1-yl)-1-(R)-cyclohexyl-ethyl]-6-phenoxy-3,4-dihydro-pyrido[3,4-d]pyrimidin-2-yl}-hydroxylamine] | – | – | – | – | 94
NC1=Nc2cnc(Oc3ccccc3)cc2CN1[C@@H](CCC(=O)N1CCOCC1)C1CCCCC1 [Compound 166] | – | 0.2 µM | 85 | – | –
CC(C)(C)CNC(=O)CC[C@@H](CC1CCOCC1)N1Cc2cc(Oc3ccccc3)ncc2N=C1N [Compound 219] | – | 0.64 µM | 64 | – | –

The remaining compounds from weak to strong by IC50, led by results:

inhibition at 0.3 µM [1] [%] | IC50 | inhibition at 1 µM [1] [%] | % Inhibition @ 1.0 μM [1] [%] | inhibition at 10 µM (10.0 μM, percent inhibition of the control activity) [%] | SMILES
– | 0.2 µM | 94 | – | – | CC(C)(C)CNCCC[C@@H](C1CCCCC1)N1Cc2cc(Oc3ccccc3)ncc2N=C1N [Compound 161]
– | 0.19 µM | 86 | – | – | CC(C)CN(CCN1CCOCC1)C(=O)CC[C@@H](C(C)C)N1Cc2cc(Oc3ccccc3)ncc2N=C1N [Compound 190]
– | 0.18 µM | 92 | – | – | CC(C)[C@H](COCC1CC(C(C)(C)C)=NO1)N1Cc2cc(Oc3ccccc3)ncc2N=C1N (some centres unmarked) [Compound 236, 3-[1-(3-tert-Butyl-4,5-dihydro-isoxazol-5-ylmethoxymethyl)-2-methyl-propyl]-6-phenoxy-3,4-dihydro-pyrido[3,4-d]pyrimidin-2-ylamine]
88 | 0.15 µM | – | – | – | NC1=Nc2cnc(Oc3ccccc3)cc2CN1[C@@H](CCC(=O)N(Cc1ccncc1)C1CCCCC1)C1CCCCC1 [Compound 79]
72 | 0.15 µM | – | – | – | CC(C)[C@H](CCC(=O)N[C@H](COC(C)(C)C)C(=O)N1CCCCC1)N1Cc2cc(Oc3ccccc3)ncc2N=C1N [Compound 98]
– | 0.14 µM | 99 | – | – | CC(C)CN(CCN1CCOCC1)C(=O)CC[C@@H](C1CCCCC1)N1Cc2cc(Oc3ccccc3)ncc2N=C1N [Compound 189]
– | 0.14 µM | 95 | – | – | NC1=Nc2cnc(Oc3ccccc3)cc2CN1[C@@H](CCn1cc(C2CCCCC2)nn1)C1CCCCC1 [Compound 198, 3-[—(S)-cyclohexyl-3-(4-cyclohexyl-[1,2,3]triazol-1-yl)-propyl]-6-phenoxy-3,4-dihydro-pyrido[3,4-d]pyrimidin-2-ylamine]
– | 0.14 µM | 101 | – | – | NC1=Nc2cnc(Oc3ccccc3)cc2CN1[C@@H](CCC(=O)N(CCOCCOCCOCCO)C1CCCCC1)C1CCCCC1 [Compound 176, 4-(2-Amino-6-phenoxy-4H-pyrido[3,4-d]pyrimidin-3-yl)-4-(S),N-dicyclohexyl-N-(2-{2-[2-(2-hydroxy-ethoxy)-ethoxy]-ethoxy}-ethyl)-butyramide]
99 | 0.12 µM | – | – | – | CC(C)[C@H](CCC(=O)N(CC(=O)O)C1CCCCC1)N1Cc2cc(Oc3ccccc3)ncc2N=C1N [Compound 86]
– | 0.12 µM | 93 | – | – | CC(C)CN(C)CCC[C@@H](C1CCCCC1)N1Cc2cc(Oc3ccccc3)ncc2N=C1N [Compound 209]
– | 0.12 µM | 98 | – | – | NC1=Nc2cnc(Oc3ccccc3)cc2CN1[C@@H](CCC(=O)N(CCO)Cc1cccs1)C1CCCCC1 [Compound 141]
– | 0.11 µM | 100 | – | – | CC(C)(C)OC[C@@H](NC(=O)CC[C@@H](C1CCCCC1)N1Cc2cc(Oc3ccccc3)ncc2N=C1N)C(N)=O [Compound 111]
93 | 0.11 µM | – | – | – | CC(C)(C)OC[C@@H](NC(=O)CC[C@@H](C1CCCCC1)N1Cc2cc(Oc3ccccc3)ncc2N=C1N)C(=O)N1CCCCC1 [Compound 100]
91 | 0.1 µM | – | – | – | CN(C(=O)CC[C@@H](C1CCOCC1)N1Cc2cc(Oc3ccccc3)ncc2N=C1N)[C@H](COC(C)(C)C)C(=O)O [Compound 60]
– | 0.1 µM | 102 | – | – | CC(C)(C)OCCN(Cc1ccsc1)C(=O)CC[C@@H](C1CCCCC1)N1Cc2cc(Oc3ccccc3)ncc2N=C1N [Compound 156]
– | 0.097 µM | 93 | – | – | CC(C)[C@H](CCC(=O)N[C@H](C)CO)N1Cc2cc(Oc3ccccc3)ncc2N=C1N [Compound 175]
– | 0.089 µM | 100 | – | – | CC(C)(C)CCN(CCC[C@@H](C1CCCCC1)N1Cc2cc(Oc3ccccc3)ncc2N=C1N)CCN1CCOCC1 [Compound 182]
– | 0.086 µM | 100 | – | – | CC(C)(C)c1cn(CC[C@@H](C2CCCCC2)N2Cc3cc(Oc4ccccc4)ncc3N=C2N)nn1 [Compound 199]
– | 0.086 µM | 100 | – | – | CC(C)(C)CCN(CCN1CCOCC1)C(=O)CC[C@@H](C1CCCCC1)N1Cc2cc(Oc3ccccc3)ncc2N=C1N [Compound 174]
– | 0.085 µM | 96 | – | – | CC(C)(C)OCCNC(=O)CC[C@@H](C1CCCCC1)N1Cc2cc(Oc3ccccc3)ncc2N=C1N [Compound 181]
– | 0.084 µM | 100 | – | – | CC(C)(C)OCCN(Cc1ccccn1)C(=O)CC[C@@H](C1CCCCC1)N1Cc2cc(Oc3ccccc3)ncc2N=C1N [Compound 155]
– | 0.077 µM | 100 | – | – | CC(C)(C)CNC(=O)CC[C@@H](C1CCCCC1)N1Cc2cc(Oc3ccccc3)ncc2N=C1N [Compound 204]
93 | 0.075 µM | – | – | – | COC(=O)[C@H](COCc1ccccc1)N(C)C(=O)CC[C@@H](C1CCOCC1)N1Cc2cc(Oc3ccccc3)ncc2N=C1N [Compound 56]
– | 0.066 µM | – | 101 | – | CC(C)(C)CNC(=O)CC[C@@H](C1CCCCC1)N1Cc2cc(Oc3ccccc3)ncc2N=C1N [Compound 160]
– | 0.062 µM | 90 | – | – | Cc1nc([C@H](COC(C)(C)C)NC(=O)CC[C@@H](C2CCCCC2)N2Cc3cc(Oc4ccccc4)ncc3N=C2N)no1 [Compound 110]
